In patent US20150148551A1, “GENISTEIN FOR REDUCING LEVELS OF STORAGE COMPOUNDS IN THE TREATMENT AND/OR PREVENTION OF LYSOSOMAL STORAGE DISEASES (LSDS)” (3G THERAPEUTICS, INC., priority 2012, published 2015):

Legend:
Type in all cases: cell-based, human
[1] = system: CTSD; assay: DNA microarray, CTSD expression in fibroblasts exposed to genistein; settings: for CTSD fold change Average: 48 h vs DMSO
Method: (§1) The experiments were conducted to characterise the transcriptomic profile of human fibroblast cells exposed to genistein, and in particular to determine the expression of genes encoding lysosomal enzymes involved in metabolism (i.e. synthesis and degradation) of organic substances. The absence or deficiency of these enzymes' activity is responsible for occurrence of various lysosomal storage diseases (LSD) (including MPS). The tested hypothesis assumed that genistein influences the expression of many genes, among which there are genes coding for enzymes required in metabolism of compounds, which are pathologically stored in LSD. The results provide important information regarding genistein action on the molecular level within the range of gene expression modulation by this substance. The experiment was conducted in biological quintuplicates. Human dermal fibroblasts (HDFa) were exposed in vitro for 1, 24 or 48 hours to: 30, 60 or 100 μM of genistein; 0.05% DMSO (K1); or were untreated (control cells) (K2), and total RNA was isolated and analysed.
(§2) Fibroblast cells were grown in Dulbecco (DMEM) medium supplemented with 10% fetal bovine serum (FBS) with the addition of 1% antibiotics and anti-fungal agents at 37° C. in humidified atmosphere of 5% CO2, until the required confluency was obtained.
(§3) To determine the effect of tested compound on the transcriptom of the fibroblast cells, the growth medium was replaced with fresh medium, either non-supplemented (0.05% DMSO), or containing genistein (30, 60 or 100 μM, in 0.05% DMSO). The exposure was done for 1, 24 or 48 hours.
(§4) Total RNA was isolated from fibroblasts using High Pure RNA Isolation Kit according to the protocol and then it was quantitatively evaluated using Quant-It™ RiboGreen® Assay Kit.
(§5) Biotinylated cRNA was prepared using Ambion Total PrepAmp Kit for Illumina arrays.
(§6) Standard hybridization and quantitative image analysis procedures—Illumina hybridization protocol and Illumina scanning protocol, were used.
(§7) Processing of the results was done during data definition, including: background correction (using background subtraction method), normalization (using quantile normalization algorithm with Illumina GenomeStudio software package: gene expression module version 1.9.0) and summarization (using method, which sums the values of signal intensities from a set of probes).

[2] = system: CHST14; assay: DNA microarray, CHST14 expression in fibroblasts exposed to genistein
Method: as §1, §2, §3, §4, §5, §6, §7

[3] = system: TPP1; assay: DNA microarray, TPP1 expression in fibroblasts exposed to genistein; settings: for TPP1 fold change Average: 48 h vs DMSO
Method: as §1, §2, §3, §4, §5, §6, §7

[4] = system: SMPD1; assay: DNA microarray, SMPD1 expression in fibroblasts exposed to genistein; settings: for SMPD1 fold change Average: 48 h vs DMSO
Method: as §1, §2, §3, §4, §5, §6, §7

[5] = system: ARSA; assay: DNA microarray, ARSA expression in fibroblasts exposed to genistein; settings: for ARSA fold change Average: 48 h vs DMSO
Method: as §1, §2, §3, §4, §5, §6, §7

[6] = system: CLN5; assay: DNA microarray, CLN5 expression in fibroblasts exposed to genistein; settings: for CLN5 fold change Average: 48 h vs DMSO
Method: as §1, §2, §3, §4, §5, §6, §7

[7] = system: ABCA9; assay: DNA microarray, ABCA9 expression in fibroblasts exposed to genistein; settings: for ABCA9 fold change Average: 48 h vs DMSO
Method: as §1, §2, §3, §4, §5, §6, §7

[8] = system: GM2A; assay: DNA microarray, GM2A expression in fibroblasts exposed to genistein; settings: for GM2A fold change Average: 48 h vs DMSO
Method: as §1, §2, §3, §4, §5, §6, §7

## O=c1c(-c2ccc(O)cc2)coc2cc(O)cc(O)c12 [genistein, 4′,5,7-trihydroxy-3-phenylchromen-4-one]
[1]; 60 μM, 1 h vs 0.05% DMSO
  CTSD fold change Average 1h60/1hK1: 1.119 fold change
[1]; 60 μM
  CTSD fold change Average: 1.302 fold change
[1]; 100 μM, 1 h vs 0.05% DMSO
  CTSD fold change Average 1h100/1hK1: 1.018 fold change
[1]; 100 μM
  CTSD fold change Average: 1.939 fold change
[2]; 30 μM, 1 h vs 0.05% DMSO
  CHST14 fold change Average 1h30/1hK1: 1.007 fold change
[2]; 30 μM, 24 h vs 0.05% DMSO
  CHST14 fold change Average 24h30/24hK1: 0.8234 fold change
[2]; 30 μM, 48 h vs 0.05% DMSO
  CHST14 fold change Average 48h30/48hK1: 0.9217 fold change
[2]; 60 μM, 1 h vs 0.05% DMSO
  CHST14 fold change Average 1h60/1hK1: 0.851 fold change
[2]; 60 μM, 24 h vs 0.05% DMSO
  CHST14 fold change Average 24h60/24hK1: 0.8184 fold change
[2]; 60 μM, 48 h vs 0.05% DMSO
  CHST14 fold change Average 48h61/48hK1: 0.8526 fold change
[2]; 100 μM, 1 h vs 0.05% DMSO
  CHST14 fold change Average 1h100/1hK1: 1.06 fold change
[2]; 100 μM, 24 h vs 0.05% DMSO
  CHST14 fold change Average 24h100/24hK1: 0.8438 fold change
[2]; 100 μM, 48 h vs 0.05% DMSO
  CHST14 fold change Average 48h100/48hK1: 0.6534 fold change
[3]; 30 μM, 1 h vs 0.05% DMSO
  TPP1 fold change Average 1h30/1hK1: 1.0655 fold change
[3]; 30 μM
  TPP1 fold change Average: 1.2672 fold change
[3]; 60 μM, 1 h vs 0.05% DMSO
  TPP1 fold change Average 1h60/1hK1: 1.001 fold change
[3]; 60 μM
  TPP1 fold change Average: 1.505 fold change
[3]; 100 μM, 1 h vs 0.05% DMSO
  TPP1 fold change Average 1h100/1hK1: 1.031 fold change
[3]; 100 μM
  TPP1 fold change Average: 1.603 fold change
[4]; 30 μM, 1 h vs 0.05% DMSO
  SMPD1 fold change Average 1h30/1hK1: 1.0078 fold change
[4]; 30 μM
  SMPD1 fold change Average: 1.2419 fold change
[4]; 60 μM, 1 h vs 0.05% DMSO
  SMPD1 fold change Average 1h60/1hK1: 0.9831 fold change
[4]; 60 μM
  SMPD1 fold change Average: 1.457 fold change
[4]; 100 μM, 1 h vs 0.05% DMSO
  SMPD1 fold change Average 1h100/1hK1: 1.012 fold change
[4]; 100 μM
  SMPD1 fold change Average: 1.673 fold change
[5]; 30 μM, 1 h vs 0.05% DMSO
  ARSA fold change Average 1h30/1hK1: 0.9099 fold change
[5]; 60 μM, 1 h vs 0.05% DMSO
  ARSA fold change Average 1h60/1hK1: 0.9092 fold change
[5]; 60 μM
  ARSA fold change Average: 1.218 fold change
[5]; 100 μM, 1 h vs 0.05% DMSO
  ARSA fold change Average 1h100/1hK1: 0.963 fold change
[5]; 100 μM
  ARSA fold change Average: 1.526 fold change
[6]; 30 μM, 1 h vs 0.05% DMSO
  CLN5 fold change Average 1h30/1hK1: 1.0505 fold change
[6]; 30 μM
  CLN5 fold change Average: 1.3471 fold change
[6]; 60 μM, 1 h vs 0.05% DMSO
  CLN5 fold change Average 1h60/1hK1: 1.028 fold change
[6]; 60 μM
  CLN5 fold change Average: 1.79 fold change
[6]; 100 μM, 1 h vs 0.05% DMSO
  CLN5 fold change Average 1h100/1hK1: 1.05 fold change
[6]; 100 μM
  CLN5 fold change Average: 2.125 fold change
[7]; 30 μM, 1 h vs 0.05% DMSO
  ABCA9 fold change Average 1h30/1hK1: 1.0096 fold change
[7]; 30 μM
  ABCA9 fold change Average: 1.3825 fold change
[7]; 60 μM, 1 h vs 0.05% DMSO
  ABCA9 fold change Average 1h60/1hK1: 1.129 fold change
[7]; 100 μM, 1 h vs 0.05% DMSO
  ABCA9 fold change Average 1h100/1hK1: 0.9831 fold change
[7]; 100 μM
  ABCA9 fold change Average: 1.635 fold change
[8]; 30 μM, 1 h vs 0.05% DMSO
  GM2A fold change Average 1h30/1hK1: 1.5655 fold change
[8]; 30 μM
  GM2A fold change Average: 1.0452 fold change
[8]; 60 μM, 1 h vs 0.05% DMSO
  GM2A fold change Average 1h60/1hK1: 1.181 fold change
[8]; 60 μM
  GM2A fold change Average: 1.612 fold change
[8]; 100 μM, 1 h vs 0.05% DMSO
  GM2A fold change Average 1h100/1hK1: 1.254 fold change
[8]; 100 μM
  GM2A fold change Average: 1.536 fold change
